Data from US20250281503A1, “DO3A-BASED ANTITHROMBOTIC AGENT OR HEMOLYTIC AGENT CONTAINING GADOLINIUM COMPLEX” (ETNOVA THERAPEUTICS CORP., priority 2022, published 2025).

System: Rat platelets
Assay: Platelet aggregation inhibition (4-channel platelet lumi-aggregometer)
Format: cell-based
Conditions: compound 100 μM, compared to control (vehicle), FIG. 2
Procedure: In order to evaluate the platelet aggregation activity of MBP-11902 according to Present Example 1 of the present disclosure, the platelet aggregation was activated in rat plasma with platelet aggregation factors and agonists, thrombin, collagen, ADP (adenosine diphosphate), U46619 (thromboxane A2 agonist), and PMA (phorbol-12-myristate-13-acetate), and then, the rat plasma was pretreated with vehicle (distilled water) and various doses (100, 300, and 500 μM) of MBP-11902, and then a 4-channel platelet lumi-aggregometer (Chronolog Corp, Havertown, PA) was used to measure the value indicating the platelet aggregation level, and the results are shown in FIG. 1. […]
Rat platelets were placed in HEPES-Tyrode buffer at a concentration of 3×10^8 cells/mL and pretreated with the vehicle (distilled water) and various doses (100, 300, and 500 μM) of MBP-11902 at 37° C. for 15 minutes, and then activated with collagen, thrombin, ADP, U46619 (endoperoxide/thromboxane analogs), and PMA (PKC activator), which are known as agonists in the platelet aggregation system. The platelet aggregation was induced at 1,000 rpm in a platelet aggregation system (Chronolog Corp, Havertown, PA) at 37° C. and then, the platelet aggregation level was measured.

For `O=C(O)c1cc(-c2ccc(F)cc2F)ccc1O` [NSAID, Diflunisal], the “platelet aggregation induced by collagen (comparative evaluation)” value (collagen 1 μg/mL) was “significantly inhibit” and the “platelet aggregation induced by thrombin (comparative evaluation)” value (thrombin 0.05 U/ml) was “significantly inhibit”.
